Results from PubChem BioAssay (NCI).
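How tested: cells in 96-well plates exposed to compound for 48 hours at five concentrations. TGI: concentration producing complete growth inhibition.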

Assays:
Assay in all cases: growth of human tumour cells (NCI), 48 h
DLD-1 colon = tested on: DLD-1 colon
SN12K1 renal = tested on: SN12K1 renal
OVCAR-3 ovarian = tested on: OVCAR-3 ovarian
DMS 273 small cell lung = tested on: DMS 273 small cell lung
M19-MEL melanoma = tested on: M19-MEL melanoma
DMS 114 small cell lung = tested on: DMS 114 small cell lung
HOP-18 NSCLC = tested on: HOP-18 NSCLC
SNB-78 CNS = tested on: SNB-78 CNS
RXF 393 renal = tested on: RXF 393 renal
K-562 leukemia = tested on: K-562 leukemia
XF 498 CNS = tested on: XF 498 CNS
KM20L2 colon = tested on: KM20L2 colon

Measured: TGI

COc1cc(/C=C/C(=O)O)ccc1C(=O)OCc1ccccc1
> 100 µM: all assays above
